Measurements reported in PMC5133562, “Engineering of a thermostable esterase Est816 to improve its quorum-quenching activity and the underlying structural basis” (Scientific Reports, 2016).
Positions count from the first letter of the chain named.

Experiments:
Assay in all cases: HPLC, […] nm; lactonase buffer kinetic assay (method of Thomas et al.)
Type in all cases: biochemical
Conditions in all cases: 30 °C; lactone hydrolysis
[1] = target: T1, Est816 (uncultured bacterium, UniProt Z9COY3ZA92, A133F/K155N/V216F, form not given)
T1 construct: full length, C-terminal 6xHis tag (pET-21b), E. coli BL21(DE3); catalytic triad S93, D214, H242
T1 sequence (Z9COY3ZA92 1-260 A133F/K155N/V216F): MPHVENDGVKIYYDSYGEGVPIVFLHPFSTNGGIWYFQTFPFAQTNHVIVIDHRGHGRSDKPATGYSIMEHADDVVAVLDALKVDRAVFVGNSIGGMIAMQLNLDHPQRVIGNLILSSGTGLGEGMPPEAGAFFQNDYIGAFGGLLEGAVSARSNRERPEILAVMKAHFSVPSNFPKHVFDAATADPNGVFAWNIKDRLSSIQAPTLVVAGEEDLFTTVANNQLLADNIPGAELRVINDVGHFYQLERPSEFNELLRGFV

[2] = target: T2, Est816 (uncultured bacterium, UniProt Z9COY3ZA92, V216A/N238K, form not given)
T2 construct: full length, C-terminal 6xHis tag (pET-21b), E. coli BL21(DE3); catalytic triad S93, D214, H242
T2 sequence (Z9COY3ZA92 1-260 V216A/N238K): T1 sequence (Z9COY3ZA92 1-260 A133F/K155N/V216F) with F133A, N155K, F216A, N238K

[3] = target: T3, Est816 (uncultured bacterium, UniProt Z9COY3ZA92, V216A, form not given)
T3 construct: full length, C-terminal 6xHis tag (pET-21b), E. coli BL21(DE3); catalytic triad S93, D214, H242
T3 sequence (Z9COY3ZA92 1-260 V216A): T1 sequence (Z9COY3ZA92 1-260 A133F/K155N/V216F) with F133A, N155K, F216A

[4] = target: T4, Est816 (uncultured bacterium, UniProt Z9COY3ZA92, A133V/K155N, form not given)
T4 construct: full length, C-terminal 6xHis tag (pET-21b), E. coli BL21(DE3); catalytic triad S93, D214, H242
T4 sequence (Z9COY3ZA92 1-260 A133V/K155N): T1 sequence (Z9COY3ZA92 1-260 A133F/K155N/V216F) with F133V, F216V

[5] = target: T5, Est816 (uncultured bacterium, UniProt Z9COY3ZA92, P27G/F28N, form not given)
T5 construct: full length, C-terminal 6xHis tag (pET-21b), E. coli BL21(DE3); catalytic triad S93, D214, H242
T5 sequence (Z9COY3ZA92 1-260 P27G/F28N): T1 sequence (Z9COY3ZA92 1-260 A133F/K155N/V216F) with P27G, F28N, F133A, N155K, F216V

[6] = target: T6, Est816 (uncultured bacterium, UniProt Z9COY3ZA92, L122A, form not given)
T6 construct: full length, C-terminal 6xHis tag (pET-21b), E. coli BL21(DE3); catalytic triad S93, D214, H242
T6 sequence (Z9COY3ZA92 1-260 L122A): T1 sequence (Z9COY3ZA92 1-260 A133F/K155N/V216F) with L122A, F133A, N155K, F216V

[7] = target: T7, Est816 (uncultured bacterium, UniProt Z9COY3ZA92, N238K, form not given)
T7 construct: full length, C-terminal 6xHis tag (pET-21b), E. coli BL21(DE3); catalytic triad S93, D214, H242
T7 sequence (Z9COY3ZA92 1-260 N238K): T1 sequence (Z9COY3ZA92 1-260 A133F/K155N/V216F) with F133A, N155K, F216V, N238K

`CCCCCCCC(=O)NC1CCOC1=O` (racemic) [C8-HSL, N-octanoyl-DL-homoserine lactone] showed a Km [1] of 759 ± 62.2 µM, a Km [2] of 1140 ± 101 µM and a Km [3] of 5800 ± 289 µM. For the same compound, the Km [4] was 3490 ± 146 µM, the Km [5] was 3090 ± 198 µM and the Km [6] was 105 ± 7.2 µM. For the same compound, the Km [7] was 210 ± 15.5 µM.
